Source: PubChem BioAssay AID2060605 (Molecular Pharmacology Branch, DTP, NCI, 2025)
Blank lines part the entries; values can stand above or below the compound they belong to.

Test system: 947758-054-R-J2-PDC spheroid growth, percent test/control
Assay: Anticancer human tumor 947758-054-R-J2-PDC patient-derived colon adenocarcinoma cell line growth inhibition [CLK]
Conditions: spheroids with HUVEC and MSC; for IC50: curve of first compound; for viability, T/C: stronger effect = lower value
In short: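 Multi-cell-type spheroids combined patient-derived tumor cells with HUVEC endothelial cells and human mesenchymal stem cells. Paired agents were dosed in half-log steps down from about clinical Cmax, or from 10 microM where Cmax was unknown.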
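Further: spheroids exposed to compounds for one week before readout.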
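Wherever viability, T/C is given: 100% = DMSO vehicle control wells.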

IC50 (second compound 0.0316 µM): > 100 nM
IC50 (second compound 0.1 µM): > 100 nM
IC50 (second compound 0.316 µM): 36.7 nM
IC50 (second compound 1 µM): < 0.316 nM
IC50 (second compound 3.16 µM): < 0.316 nM
IC50 (second compound 10 µM): < 0.316 nM
SMILES: Cn1ncnc1[C@H]1c2n[nH]c(=O)c3cc(F)cc(c23)N[C@@H]1c1ccc(F)cc1 + CNC(=O)c1ccc(Nc2nc(OC3CCCC3)c3c(-c4ccc5nc(C)oc5c4)c[nH]c3n2)c(OC)c1
viability, T/C (second compound 0.0316 µM, first compound 0.000316 µM): 78.7%
viability, T/C (second compound 0.0316 µM, first compound 0.001 µM): 102%
viability, T/C (second compound 0.0316 µM, first compound 0.00316 µM): 84.3%
viability, T/C (second compound 0.0316 µM, first compound 0.01 µM): 96.9%
viability, T/C (second compound 0.0316 µM, first compound 0.0316 µM): 90.4%
viability, T/C (second compound 0.0316 µM, first compound 0.1 µM): 82.6%
viability, T/C (second compound 0.1 µM, first compound 0.000316 µM): 96.5%
viability, T/C (second compound 0.1 µM, first compound 0.001 µM): 88.6%
viability, T/C (second compound 0.1 µM, first compound 0.00316 µM): 81.3%
viability, T/C (second compound 0.1 µM, first compound 0.01 µM): 90.8%
viability, T/C (second compound 0.1 µM, first compound 0.0316 µM): 84.8%
viability, T/C (second compound 0.1 µM, first compound 0.1 µM): 58.9%
viability, T/C (second compound 0.316 µM, first compound 0.000316 µM): 69.7%
viability, T/C (second compound 0.316 µM, first compound 0.001 µM): 65%
viability, T/C (second compound 0.316 µM, first compound 0.00316 µM): 70.4%
viability, T/C (second compound 0.316 µM, first compound 0.01 µM): 77.9%
viability, T/C (second compound 0.316 µM, first compound 0.0316 µM): 51.4%
viability, T/C (second compound 0.316 µM, first compound 0.1 µM): 40.5%
viability, T/C (second compound 1 µM, first compound 0.000316 µM): 46.1%
viability, T/C (second compound 1 µM, first compound 0.001 µM): 45.1%
viability, T/C (second compound 1 µM, first compound 0.00316 µM): 42.3%
viability, T/C (second compound 1 µM, first compound 0.01 µM): 49.3%
viability, T/C (second compound 1 µM, first compound 0.0316 µM): 46%
viability, T/C (second compound 1 µM, first compound 0.1 µM): 24.6%
viability, T/C (second compound 3.16 µM, first compound 0.000316 µM): 38.9%
viability, T/C (second compound 3.16 µM, first compound 0.001 µM): 31.4%
viability, T/C (second compound 3.16 µM, first compound 0.00316 µM): 38.4%
viability, T/C (second compound 3.16 µM, first compound 0.01 µM): 42.6%
viability, T/C (second compound 3.16 µM, first compound 0.0316 µM): 38.6%
viability, T/C (second compound 3.16 µM, first compound 0.1 µM): 28.7%
viability, T/C (second compound 10 µM, first compound 0.000316 µM): 33.4%
viability, T/C (second compound 10 µM, first compound 0.001 µM): 31.8%
viability, T/C (second compound 10 µM, first compound 0.00316 µM): 32.9%
viability, T/C (second compound 10 µM, first compound 0.01 µM): 48%
viability, T/C (second compound 10 µM, first compound 0.0316 µM): 28.9%
viability, T/C (second compound 10 µM, first compound 0.1 µM): 26.8%

IC50 (second compound 0.0316 µM): 1.85 nM
IC50 (second compound 0.1 µM): 1.66 nM
IC50 (second compound 0.316 µM): 1.72 nM
IC50 (second compound 1 µM): 1.42 nM
IC50 (second compound 3.16 µM): < 0.949 nM
IC50 (second compound 10 µM): < 0.949 nM
SMILES: CC(C)CC(NC(=O)C(Cc1ccccc1)NC(=O)c1cnccn1)B(O)O (centres undefined) + CNC(=O)c1ccc(Nc2nc(OC3CCCC3)c3c(-c4ccc5nc(C)oc5c4)c[nH]c3n2)c(OC)c1
viability, T/C (second compound 0.0316 µM, first compound 0.000949 µM): 117%
viability, T/C (second compound 0.0316 µM, first compound 0.003 µM): 1.15%
viability, T/C (second compound 0.0316 µM, first compound 0.00949 µM): 0.26%
viability, T/C (second compound 0.0316 µM, first compound 0.03 µM): 0.29%
viability, T/C (second compound 0.0316 µM, first compound 0.0949 µM): 0.3%
viability, T/C (second compound 0.0316 µM, first compound 0.3 µM): 0.28%
viability, T/C (second compound 0.1 µM, first compound 0.000949 µM): 89%
viability, T/C (second compound 0.1 µM, first compound 0.003 µM): 8.66%
viability, T/C (second compound 0.1 µM, first compound 0.00949 µM): 0.26%
viability, T/C (second compound 0.1 µM, first compound 0.03 µM): 0.27%
viability, T/C (second compound 0.1 µM, first compound 0.0949 µM): 0.25%
viability, T/C (second compound 0.1 µM, first compound 0.3 µM): 1.66%
viability, T/C (second compound 0.316 µM, first compound 0.000949 µM): 102%
viability, T/C (second compound 0.316 µM, first compound 0.003 µM): 1.44%
viability, T/C (second compound 0.316 µM, first compound 0.00949 µM): 0.22%
viability, T/C (second compound 0.316 µM, first compound 0.03 µM): 0.22%
viability, T/C (second compound 0.316 µM, first compound 0.0949 µM): 0.25%
viability, T/C (second compound 0.316 µM, first compound 0.3 µM): 0.23%
viability, T/C (second compound 1 µM, first compound 0.000949 µM): 75.7%
viability, T/C (second compound 1 µM, first compound 0.003 µM): 2.99%
viability, T/C (second compound 1 µM, first compound 0.00949 µM): 0.32%
viability, T/C (second compound 1 µM, first compound 0.03 µM): 0.21%
viability, T/C (second compound 1 µM, first compound 0.0949 µM): 0.26%
viability, T/C (second compound 1 µM, first compound 0.3 µM): 0.46%
viability, T/C (second compound 3.16 µM, first compound 0.000949 µM): 45.1%
viability, T/C (second compound 3.16 µM, first compound 0.003 µM): 0.43%
viability, T/C (second compound 3.16 µM, first compound 0.00949 µM): 0.21%
viability, T/C (second compound 3.16 µM, first compound 0.03 µM): 0.19%
viability, T/C (second compound 3.16 µM, first compound 0.0949 µM): 0.21%
viability, T/C (second compound 3.16 µM, first compound 0.3 µM): 0.24%
viability, T/C (second compound 10 µM, first compound 0.000949 µM): 38.8%
viability, T/C (second compound 10 µM, first compound 0.003 µM): 0.32%
viability, T/C (second compound 10 µM, first compound 0.00949 µM): 0.21%
viability, T/C (second compound 10 µM, first compound 0.03 µM): 0.2%
viability, T/C (second compound 10 µM, first compound 0.0949 µM): 0.23%
viability, T/C (second compound 10 µM, first compound 0.3 µM): 0.35%
